Assay results from US9718821B2, “Pyridopyrimidinone inhibitors of kinases” (AbbVie Inc., priority 2012, dated 2017).

The compounds below were run against T1, GST-tagged-Wee1 kinase (Homo sapiens, UniProt P30291) (assay: Wee1 time-resolved fluorescence equilibrium binding assay (displacement of Oregon Green-labeled ATP-competitive kinase probe)). Settings: enzyme binding data; GST-tagged-Wee1 kinase 2 nM, fluorescent probe 300 nM, inhibitor 0.003 to 10 micromolar, 1 hour incubation; read-out: Wee-1 binding (Ki nM).
T1 construct: purchased Carnabio 05-177
T1 sequence (P30291 whole entry): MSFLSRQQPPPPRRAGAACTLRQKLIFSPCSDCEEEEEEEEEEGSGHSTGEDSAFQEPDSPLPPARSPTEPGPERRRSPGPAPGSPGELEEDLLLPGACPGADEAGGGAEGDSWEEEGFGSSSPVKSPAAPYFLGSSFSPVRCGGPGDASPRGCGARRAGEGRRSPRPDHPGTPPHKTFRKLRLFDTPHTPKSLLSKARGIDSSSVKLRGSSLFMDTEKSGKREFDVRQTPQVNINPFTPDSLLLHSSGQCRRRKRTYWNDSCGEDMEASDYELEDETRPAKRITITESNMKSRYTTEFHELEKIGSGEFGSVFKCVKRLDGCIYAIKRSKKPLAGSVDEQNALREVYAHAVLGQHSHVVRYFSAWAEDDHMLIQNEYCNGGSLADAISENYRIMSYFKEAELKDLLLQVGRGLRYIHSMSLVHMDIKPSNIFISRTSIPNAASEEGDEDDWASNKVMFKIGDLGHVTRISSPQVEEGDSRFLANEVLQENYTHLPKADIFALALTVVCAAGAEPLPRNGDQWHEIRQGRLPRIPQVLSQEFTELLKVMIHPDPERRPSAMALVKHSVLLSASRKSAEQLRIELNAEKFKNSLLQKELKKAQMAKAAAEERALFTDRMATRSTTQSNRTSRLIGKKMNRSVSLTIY
Method in brief: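 Competitive TR-fluorescence equilibrium binding with GST-Wee1; inhibitors displace a rapidly reversible Oregon Green-labelled ATP-competitive probe. Ki values derived from probe displacement.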

| Ki [nM] | Structure (SMILES) |
| --- | --- |
| 1.3 | Cc1n[nH]c(C)c1-n1cc(C)c2nc(Nc3ccc4c(c3)CNCC4)ncc2c1=O [Example 123, 6-(3,5-dimethyl-1H-pyrazol-4-yl)-8-methyl-2-(1,2,3,4-tetrahydroisoquinolin-7-ylamino)pyrido[4,3-d]pyrimidin-5(6H)-one] |
| 1.5 | Cc1cn(-c2c(F)cccc2Cl)c(=O)c2cnc(Nc3ccc4c(c3)CNCC4(C)C)nc12 [Example 73, 6-(2-chloro-6-fluorophenyl)-2-[(4,4-dimethyl-1,2,3,4-tetrahydroisoquinolin-7-yl)amino]-8-methylpyrido[4,3-d]pyrimidin-5(6H)-one] |
| 0.3 | O=c1c2cnc(Nc3ccc4c(c3)CNCC4)nc2c(CF)cn1-c1c(Cl)cccc1Cl [Example 109, 6-(2,6-dichlorophenyl)-8-(fluoromethyl)-2-(1,2,3,4-tetrahydroisoquinolin-7-ylamino)pyrido[4,3-d]pyrimidin-5(6H)-one] |
| 0.3 | Cc1cn(-c2c(Cl)cccc2Cl)c(=O)c2cnc(Nc3ccc4c(c3)CNCC4(C)C)nc12 [Example 77, 6-(2,6-dichlorophenyl)-2-[(4,4-dimethyl-1,2,3,4-tetrahydroisoquinolin-7-yl)amino]-8-methylpyrido[4,3-d]pyrimidin-5(6H)-one] |

The next lines start with the compound.

| Structure (SMILES) | Ki [nM] |
| --- | --- |
| CC1(C)CNCc2cc(Nc3ncc4c(=O)n(-c5c(Cl)cccc5Cl)cc(C(F)F)c4n3)ccc21 [Example 85, 6-(2,6-dichlorophenyl)-8-(difluoromethyl)-2-[(4,4-dimethyl-1,2,3,4-tetrahydroisoquinolin-7-yl)amino]pyrido[4,3-d]pyrimidin-5(6H)-one] | 0.265 |
| Cc1cn(-c2c(Cl)cccc2Cl)c(=O)c2cnc(Nc3ccc(N4CCN(CCCN(C)C)CC4)cc3)nc12 [Example 131, 6-(2,6-dichlorophenyl)-2-[(4-{4-[3-(dimethylamino)propyl]piperazin-1-yl}phenyl)amino]-8-methylpyrido[4,3-d]pyrimidin-5(6H)-one] | 0.2 |
| O=c1c2cnc(Nc3ccc4c(c3)CNCC43CC3)nc2c(CO)cn1-c1c(Cl)cccc1Cl [Example 57, 6-(2,6-dichlorophenyl)-2-(2′,3′-dihydro-1′H-spiro[cyclopropane-1,4′-isoquinolin]-7′-ylamino)-8-(hydroxymethyl)pyrido[4,3-d]pyrimidin-5(6H)-one] | 0.1 |
| Cc1cn(-c2c(Cl)cccc2Cl)c(=O)c2cnc(Nc3ccc4c(c3)CN(C)CC4(C)C)nc12 [Example 79, 6-(2,6-dichlorophenyl)-8-methyl-2-[(2,4,4-trimethyl-1,2,3,4-tetrahydroisoquinolin-7-yl)amino]pyrido[4,3-d]pyrimidin-5(6H)-one] | 0.4 |
| Cc1cn(-c2c(Cl)cccc2Cl)c(=O)c2cnc(Nc3ccc(SCCN(C)C)cc3)nc12 [Example 92, 6-(2,6-dichlorophenyl)-2-[(4-{[2-(dimethylamino)ethyl]sulfanyl}phenyl)amino]-8-methylpyrido[4,3-d]pyrimidin-5(6H)-one] | 0.378 |
| Cc1cn(-c2c(Cl)cccc2Cl)c(=O)c2cnc(Nc3ccc4c(c3)CN(C)C4(C)C)nc12 [Example 115, 6-(2,6-dichlorophenyl)-8-methyl-2-[(1,1,2-trimethyl-2,3-dihydro-1H-isoindol-5-yl)amino]pyrido[4,3-d]pyrimidin-5(6H)-one] | 0.2 |
